Measurements published in patent US20260035722A1, “METHOD FOR LIQUEFYING AGAROSE AND PRODUCING NEOAGAROTETRAOSE/NEOAGAROHEXAOSE BY USING THERMOSTABLE GH16B BETA-AGARASE DERIVED FROM NOVEL AGAR-DEGRADING BACTERIUM” (Kyungpook National University Industry-Academic Cooperation …, priority 2022, published 2026).

B1: GH16B β-agarase: Thermostable endolytic GH16 family β-agarase (SEQ ID NO: 1, 597 aa, 63.8 kDa) from Cellvibrio sp. KY-GH-1, expressed in E. coli (protein, listed as Cellvibrio sp.)
chain: MKKITSCIAAALLLSAPLASFAADWDSVPIPAAAGTGKTWQLQSISDEFNYTASPTVKPAEFNTRWNPSFINSWTGPGDSEFNAGHSYTSGGSLALQSSAKAGTNKIYTGIISSKETFTYPLYLEARVKHTGNTLANAVWMLSADSTQEIDAMESYGSDRAGQEWFDQRMHVSHHVFIRSPFQDYQPKDEGSWVVNPAGGTWRGAMHVYGVHWKDPWNLDYYIDGVKVRTVSGPAMIDPYNFTNGTGINKPLHIIIDVEHQDWRDVRPTAAELADTSKSIMFVDWIRVYKPVTSSATSSSNSVSSSSSSLSNSSSSSATTVIDFANYFDTGKSTASVAGDTYVGFNKSGSGNINYNTAGDWADYLVTLPSDGQYKIEVTTASPMTSGIGAKLSVDGIYVSTTSLAATGGWELYSASTLANNLSIGAGTHTVRIESTGTSAWQWNGDEIRVTKVGSAPVGSPTTPAPVAMIIQAESFSATGGVYDGFKTYSVNGVSAINYNQRGDWADYAVNVAADGSYTFNAYVSSPMSGAALEVSVDGVKVLTQAVPNNGSWDSFQKVSSASKIALTKGAHTIRVTSAGTTSSTWEWNADKFELIP

What was measured:
[1] = tested on: GH16B β-agarase; assay: Agarase activity assay (DNS method): effects of metal ions, reducing agent and EDTA on enzymatic activity; type: biochemical, Cellvibrio sp. KY-GH-1; conditions: for Relative activity (%): relative to untreated control, mean ± SD (n = 3); for Effect on the enzymatic activity: 0.5 to 2.5 mM
Description: (§1) Quantitative analysis of GH16B β-agarase activity was performed using the DNS method, which detects reducing sugars released from agarose. The enzyme solution (100 μL) was mixed with an equal volume of 0.8% melted agarose in an appropriate buffer. The content of reducing sugars formed in the reaction mixture was determined colorimetrically using DNS reagent after 30 min of incubation at 50° C. The amount of enzyme that produced reducing power equivalent to 1 μmol of D-galactose per min was defined as one unit of enzymatic activity.
(§2) The optimal temperature was determined using 50 mM Tris-HCl buffer (pH 7.0) for 30 min over a temperature range of 25 to 70° C. The optimal pH was determined using 50 mM Mollvaine buffer ([…] to 7.5) and 50 mM Tris-HCl buffer (pH 7.5 to 10.0). For temperature and pH stability assays, aliquots of enzyme were preincubated at the indicated temperature and pH for the indicated time, and then the relative enzyme activity was measured under standard assay conditions (30 min, 50° C., 50 mM Tris-HCl buffer, pH 7.0). The kinetic parameters of GH16B β-agarase were determined by adding a known amount of the enzyme solution to the agarose substrate solution (1 to 5 mg/mL agarose in 50 mM Tris-HCl, pH 7.0). The Lineweaver-Burk equation, generated via GraphPad Prism 8 statistical package (GraphPad Software Inc., USA), was used to calculate Km and Vmax values. To examine the effects of metal ions, reducing agent, and chelator EDTA on enzymatic activity, various metal ions (CaCl2, CuSO4, KCl, MgCl2, MnCl2, MnSO4, and NaCl), TCEP, or EDTA were used at the indicated concentrations under standard analytical conditions.

[2] = Substrate hydrolysis and agarose liquefaction analysed by TLC and MALDI-TOF/TOF MS; type: biochemical
Description: TLC analysis was performed for GH16B β-agarase-catalyzed hydrolysates of agarose, NAOS, or AOS on Silica Gel 60 aluminum plates, which were developed with n-butanol-ethanol-H2O [3:2:2 (v/v)]. To detect oligosaccharides, a visualization solution (containing 0.2% (w/v) naphthoresorcinol, 10% (v/v) H2SO4, ethanol) was sprayed, followed by heating at 80° C. NA2 and the NAOS standard mixture containing NA2-NA18 were used as standards.
MALDI-TOF/TOF MS was performed according to previously described methods to analyze the hydrolytic products of agarose or AOS through enzymatic reactions. The assisted laser desorption/ionization tandem time-of-flight mass spectrometry (MALDI-TOF/TOF MS) was performed in the positive ion reflectron mode using the ultraflextreme system (Bruker Daltonics). The purified reaction product was dissolved in water, 1 μL of the dissolved reaction product was spotted onto a stainless steel target plate, and 0.3 μL of 0.01 M NaCl and […] of 50 mg/mL 2,5-dihydroxybenzoic acid in 50% acetonitrile were added thereto. The spots were rapidly dried under vacuum for homogeneous crystallization. Each acquired spectrum represents the combined signal from 800 laser shots at each of 3 random locations on the spot, totaling 2,400 laser shots, using a 1-kHz laser. The laser attenuator offset and range were set at 68% and 15%, respectively, with the laser focus set at 50%. Mass spectra were recorded over an m/z range of 0 to 5,100. To obtain high-resolution data, the detector sampling rate was set at a maximum of 4.00 giga samples/s, and the detector gain was set at 4.0×. Mass spectra were externally calibrated using maltooligosaccharides isolated from commercial beer. A ladder of hexose polymers, spaced 1 hexose unit (162.053 Da) apart, provided comprehensive coverage of the entire mass acquisition range, enabling the accurate mass calibration of the MALDI-TOF/TOF MS just prior to the sample analysis. Raw MS data were processed with FlexAnalysis software (version 3.3; Bruker Daltonics). […]

[3] = Description: as §1
as §2, with “The optimal temperature was determined using 50 mM Tris-HCl buffer (pH 7.0) for 30 min over a temperature range of 25 to 70° C.” left out

[4] = Zymogram for agarase activity on LB agarose plates (Lugol's iodine); type: cell-based, E. coli BL21 (DE3) pLysS transformants; conditions: among transformants expressing GH16A, GH16B, GH16C, GH16D β-agarases
Description: E. coli BL21 (DE3) pLysS transformants harboring the recombinant pET-30a plasmid containing GH16A, GH16B, GH16C, or GH16D were spotted onto LB agarose plates (containing 1.5% agarose ((Invitrogen, Life technology, Grand Island, NY, USA), 50 μg/mL chloramphenicol, 25 μg/mL kanamycin, and 0.1 mM IPTG) and then incubated for 3 days at 37° C. The plates were stained with Lugol's at room iodine solution temperature.

[5] = Kinetic parameters of GH16B β-agarase (Lineweaver-Burk, DNS method); type: biochemical; conditions: for agarose
Description: as §1, §2

Molecule	Relative activity (%) ([1]; 0.5 mM metal ion/chemical)	Relative activity (%) ([1]; 1.0 mM metal ion/chemical)	Relative activity (%) ([1]; 2.5 mM metal ion/chemical)	Effect on the enzymatic activity [1]	other results
O=S(=O)([O-])[O-].[Mn+2] [MnSO4]	146 (±1.95) %	156 (±0.70) %	156 (±1.90) %	–	–
[Cl-].[Na+] [NaCl]	100 (±0.30) %	109 (±5.33) %	101 (±2.25) %	no significant effect	–
[Cl-].[Cl-].[Mg+2] [MgCl2]	94 (±2.80) %	107 (±0.80) %	100 (±3.55) %	no significant effect	–
O=C(O)CN(CCN(CC(=O)O)CC(=O)O)CC(=O)O [EDTA, ethylenediamine tetraacetic acid, reference compound]	95 (±4.75) %	95 (±2.02) %	91 (±4.35) %	no significant effect	–
[Cl][Mn][Cl] [MnCl2]	125 (±1.40) %	163 (±2.60) %	155 (±3.00) %	–	–
O=C(O)CCP(CCC(=O)O)CCC(=O)O [TCEP, tris(2-carboxyethyl)phosphine, reference compound]	100 (±1.55) %	109 (±2.85) %	117 (±6.00) %	–	Enhancement of enzymatic activity ([1]; 5 to 15 mM TCEP, dose-dependent, 0.8 μg/mL enzyme, 0.4% agarose, pH 7.0, 50° C., 30 min): up to 1.6 fold
O=S(=O)([O-])[O-].[Cu+2] [CuSO4]	103 (±0.25) %	97 (±1.45) %	74%	–	–
[Cl-].[K+] [KCl]	103 (±1.20) %	109 (±6.41) %	104 (±3.45) %	no significant effect	–
[Ca+2].[Cl-].[Cl-] [CaCl2]	96 (±1.80) %	110 (±6.85) %	103 (±0.90) %	no significant effect	–
B1	–	–	–	–	Agarose concentration completely hydrolysed into NA4/NA6 ([2]; 1.6 μg/mL enzyme, 1 mM MnCl2, 10 mM TCEP, 50 mM Tris-HCl, pH 7.5, 50° C., 14 hours, magnetic stirring): up to 9.0%; End products of hydrolysis ([2]; AOS substrate): NA4/NA6 but also A5; End products of hydrolysis ([2]; agarose substrate): NA4 and NA6; Optimum pH [3]: 7.0; Optimal temperature (highest activity) ([3]; 0.4% agarose, 0.8 μg/mL enzyme, pH 7.0, 30 min): 50 °C; Maximum activity retained ([3]; over the range of 25 to 60° C.): more than 80%; pH stability ([3]; pH 4): rapidly became inactive; Agarose-degrading activity (bright clear zone around the colonies) [4]: highest; Vmax [5]: 542.0 U/mg; kcat [5]: 576.3 s⁻¹; Km ([5]; 50 mM Tris-HCl, pH 7.0): 14.40 mg/mL
